pEC50: −log10 of the molar value.
What was measured:
human TLR8 = molecular target: T1, human TLR8 (Homo sapiens, UniProt Q9NR97); test: In vitro human TLR8 reporter assay (HEK-Blue, NF-kB/AP1-inducible SEAP); assay type: cell-based; conditions: at 50 μM
T1 construct: host or cells: human HEK-Blue cells with NF-kB/AP1-inducible SEAP reporter
T1 sequence (Q9NR97 27-1041): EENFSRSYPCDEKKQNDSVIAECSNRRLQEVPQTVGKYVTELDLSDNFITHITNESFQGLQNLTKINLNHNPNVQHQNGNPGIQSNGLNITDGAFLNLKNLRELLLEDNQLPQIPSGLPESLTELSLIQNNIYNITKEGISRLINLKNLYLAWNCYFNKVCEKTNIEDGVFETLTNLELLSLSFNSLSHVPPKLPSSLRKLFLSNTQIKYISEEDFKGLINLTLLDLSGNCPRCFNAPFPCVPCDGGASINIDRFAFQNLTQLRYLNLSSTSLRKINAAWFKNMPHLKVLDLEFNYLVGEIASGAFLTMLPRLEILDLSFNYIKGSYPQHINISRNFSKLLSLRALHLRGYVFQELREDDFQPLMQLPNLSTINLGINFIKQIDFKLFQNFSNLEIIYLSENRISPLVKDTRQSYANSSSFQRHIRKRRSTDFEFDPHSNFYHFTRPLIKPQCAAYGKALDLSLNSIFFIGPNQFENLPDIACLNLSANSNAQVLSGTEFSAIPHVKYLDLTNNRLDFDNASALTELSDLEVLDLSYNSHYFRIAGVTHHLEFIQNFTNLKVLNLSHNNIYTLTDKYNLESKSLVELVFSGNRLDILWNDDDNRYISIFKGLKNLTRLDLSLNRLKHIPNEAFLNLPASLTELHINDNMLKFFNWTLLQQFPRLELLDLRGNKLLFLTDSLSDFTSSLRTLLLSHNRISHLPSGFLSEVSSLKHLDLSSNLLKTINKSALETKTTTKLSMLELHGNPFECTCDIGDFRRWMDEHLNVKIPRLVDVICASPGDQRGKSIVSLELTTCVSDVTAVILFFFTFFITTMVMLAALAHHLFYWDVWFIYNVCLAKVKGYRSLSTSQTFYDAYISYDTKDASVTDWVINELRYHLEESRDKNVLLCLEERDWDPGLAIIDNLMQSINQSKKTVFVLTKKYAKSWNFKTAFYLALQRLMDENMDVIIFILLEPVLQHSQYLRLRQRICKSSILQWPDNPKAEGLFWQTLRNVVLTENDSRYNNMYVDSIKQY
Protocol: In Vitro Human TLR7 and TLR8 Binding Reporter Assays Logarithmically-growing human HEK-Blue cells co-expressing a TLR7 or TLR8 gene and a NF-kB/AP1-inducible SEAP (secreted embryonic alkaline phosphatase; […] Cellular SEAP production is measured using an Envision plate reader instrument thirty minutes after adding freshly-made Quanti-Blue reagent (prepared by following manufacturer instructions; Invivogen, San Diego, CA) to the HEK-Blue TLR Nf-kB-SEAP cell reactions. All EC50 values (half-maximal effective concentration) are determined using proprietary data analysis software.

NLRP3 = molecular target: T2, NLRP3 (Homo sapiens, UniProt Q96P20); test: Measurement of IL-1β production in PMA-differentiated THP-1 cells (NLRP3 hIL1B); assay type: cell-based
T2 construct: host or cells: PMA-differentiated THP-1 cells
How it was run: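 THP-1 cells differentiated with PMA, then replated in RPMI with 2% FBS and exposed to compound for 4 h (alternative: 2 h; hTRF protocol: 2 h at 37 °C, top concentration 10 μM). Supernatant IL-1β was quantified by ELISA or HTRF. Final DMSO 1%, with vehicle control.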

T2 sequence (Q96P20 whole entry): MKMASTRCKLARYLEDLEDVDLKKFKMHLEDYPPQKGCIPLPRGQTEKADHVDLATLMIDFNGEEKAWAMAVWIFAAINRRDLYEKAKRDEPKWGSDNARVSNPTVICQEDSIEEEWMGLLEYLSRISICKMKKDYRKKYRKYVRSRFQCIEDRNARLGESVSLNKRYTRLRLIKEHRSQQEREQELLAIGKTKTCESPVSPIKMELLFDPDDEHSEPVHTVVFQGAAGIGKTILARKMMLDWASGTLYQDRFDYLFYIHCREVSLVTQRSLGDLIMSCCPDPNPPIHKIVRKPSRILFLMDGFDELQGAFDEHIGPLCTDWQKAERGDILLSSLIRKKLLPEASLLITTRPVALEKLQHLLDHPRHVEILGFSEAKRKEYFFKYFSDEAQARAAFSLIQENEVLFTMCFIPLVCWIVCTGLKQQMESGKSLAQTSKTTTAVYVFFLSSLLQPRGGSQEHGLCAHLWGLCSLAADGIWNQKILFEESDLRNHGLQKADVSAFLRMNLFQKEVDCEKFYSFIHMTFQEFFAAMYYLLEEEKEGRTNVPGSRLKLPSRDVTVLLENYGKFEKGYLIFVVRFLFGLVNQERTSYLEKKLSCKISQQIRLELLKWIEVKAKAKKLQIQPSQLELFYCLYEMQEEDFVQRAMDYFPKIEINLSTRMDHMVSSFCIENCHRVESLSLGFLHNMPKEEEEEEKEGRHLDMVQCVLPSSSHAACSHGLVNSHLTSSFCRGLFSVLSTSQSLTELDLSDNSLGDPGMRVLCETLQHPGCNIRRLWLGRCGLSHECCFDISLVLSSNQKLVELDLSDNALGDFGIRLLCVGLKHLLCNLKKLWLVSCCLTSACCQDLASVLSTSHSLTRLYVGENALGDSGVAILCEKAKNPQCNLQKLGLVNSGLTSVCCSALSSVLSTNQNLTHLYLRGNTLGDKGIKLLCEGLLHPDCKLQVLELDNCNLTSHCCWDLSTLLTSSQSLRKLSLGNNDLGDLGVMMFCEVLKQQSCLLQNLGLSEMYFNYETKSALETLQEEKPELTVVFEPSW

Nc1nc(OCCO)c2ccc(-c3ccn[nH]3)cc2n1 [Example 4, 2-((2-amino-7-(1H-pyrazol-3-yl)quinazolin-4-yl)oxy)ethan-1-ol]
TLR8 agonist activity (human TLR8): < 50%
pEC50 (NLRP3): 5.18

Source: patent publication US12187706B2, “NLRP3 modulators” (INNATE TUMOR IMMUNITY, INC., priority 2019, dated 2025)
